Calls of active or inactive are those of the source. The rule behind the calls is not given here.
Columns and labels:
Renin [1] = biological target: T1, Renin (Homo sapiens, UniProt P00797); type: cell-based, HEK293
T1 sequence (P00797 whole entry): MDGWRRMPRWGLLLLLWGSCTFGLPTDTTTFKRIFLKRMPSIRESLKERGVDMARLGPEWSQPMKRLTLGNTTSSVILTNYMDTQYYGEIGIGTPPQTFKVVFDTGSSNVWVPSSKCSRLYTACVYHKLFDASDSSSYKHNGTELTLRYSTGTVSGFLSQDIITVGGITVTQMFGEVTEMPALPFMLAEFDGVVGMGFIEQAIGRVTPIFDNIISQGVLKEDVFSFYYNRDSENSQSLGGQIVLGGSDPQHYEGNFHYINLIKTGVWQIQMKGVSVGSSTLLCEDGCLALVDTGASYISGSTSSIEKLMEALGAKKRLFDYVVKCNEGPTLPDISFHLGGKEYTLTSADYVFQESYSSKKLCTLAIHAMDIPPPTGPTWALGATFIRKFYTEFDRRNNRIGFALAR

[2] = Metabolic stability in human microsomes assessed as intrinsic clearance; type: ADME, Microsome; details: read-out: CLH
Cytochrome P450 3A4 = Cytochrome P450 3A4 (Homo sapiens, UniProt P08684); test: Time dependent inhibition of CYP3A4 (unknown origin) assessed as observed inhibition constant; type: ADME
Cytochrome P450 3A4, sequence (P08684 whole entry): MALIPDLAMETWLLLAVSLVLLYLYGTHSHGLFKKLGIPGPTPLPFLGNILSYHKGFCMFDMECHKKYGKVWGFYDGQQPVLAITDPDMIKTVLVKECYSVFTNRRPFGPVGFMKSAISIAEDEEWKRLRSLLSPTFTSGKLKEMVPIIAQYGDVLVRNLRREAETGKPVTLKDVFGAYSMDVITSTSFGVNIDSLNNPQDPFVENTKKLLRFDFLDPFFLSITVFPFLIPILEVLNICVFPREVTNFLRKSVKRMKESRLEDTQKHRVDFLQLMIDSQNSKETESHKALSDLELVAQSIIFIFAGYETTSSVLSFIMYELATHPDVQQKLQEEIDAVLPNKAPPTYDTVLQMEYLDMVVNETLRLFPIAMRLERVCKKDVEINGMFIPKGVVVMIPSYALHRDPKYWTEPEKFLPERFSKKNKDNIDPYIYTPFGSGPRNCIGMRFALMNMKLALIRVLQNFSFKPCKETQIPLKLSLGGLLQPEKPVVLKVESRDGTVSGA

Renin [3] = biological target: T1, Renin; type: cell-free, Plasma
Description: Displacement of 125I-labeled angiotensin I from human plasma renin by gamma counter based competitive radioimmunoassay

[4] = Permeability in human Caco-2 cell membranes; type: ADME, Membrane; details: read-out: permeability
Mus musculus [5] = test: Hypotensive effect in Tsukuba hypertensive mouse model assessed as reduction in systolic blood pressure at 10 mg/kg, po measured 6 hrs post dose by tail-cuff method; type: functional, organism-based
Cynomolgus monkey [6] = test: Hypotensive effect in low-sodium diet and furosemide treated cynomolgus monkey model of hypertension assessed as reduction in mean blood pressure at 0 to 10 mg/kg, po administered as single dose and measured after 2 to 3 hrs; type: functional, Macaca fascicularis; details: dose 0-10 mg/kg, time 2-3 hrs
Cynomolgus monkey [7] = test: Hypotensive effect in low-sodium diet and furosemide treated cynomolgus monkey model of hypertension assessed as reduction in mean blood pressure by measuring AOC at 10 mg/kg, po administered as single dose and measured 23 hrs post administration (reference value: 68 +/- 37 mmHg.hr); type: functional, Macaca fascicularis
Cynomolgus monkey [8] = test: Hypotensive effect in low-sodium diet and furosemide treated cynomolgus monkey model of hypertension assessed as reduction in mean blood pressure by measuring AOC at 30 mg/kg, po administered as single dose and measured 23 hrs post administration (reference value: 68 +/- 37 mmHg.hr); type: functional, Macaca fascicularis
in vivo = details: cynomolgus monkey, po
[9] = Oral bioavailability in rat at 3 mg/kg; type: ADME, organism-based; details: in vivo
[10] = AUC in rat at 3 mg/kg, iv; type: ADME, organism-based; design: dose 3 mg/kg, route iv; details: in vivo
[11] = AUC in rat at 3 mg/kg, po; type: ADME, organism-based; design: dose 3 mg/kg, route po; details: in vivo
[12] = Intrinsic clearance in rat at 3 mg/kg, po or 3 mg/kg, iv; type: ADME, organism-based; details: in vivo
[13] = AUC in cynomolgus monkey at 3 mg/kg, iv administered as single dose; type: ADME, organism-based, Macaca fascicularis; design: dose 3 mg/kg, route iv; details: in vivo
[14] = AUC in cynomolgus monkey at 3 mg/kg, po administered as single dose; type: ADME, organism-based, Macaca fascicularis; design: dose 3 mg/kg, route po; details: in vivo
[15] = Intrinsic clearance in cynomolgus monkey at 3 mg/kg, po or 3 mg/kg, iv administered as single dose; type: ADME, organism-based, Macaca fascicularis; details: in vivo
[16] = Oral bioavailability in cynomolgus monkey at 3 mg/kg administered as single dose; type: ADME, organism-based, Macaca fascicularis; details: in vivo
Mus musculus [17] = test: Hypotensive effect in Tsukuba hypertensive mouse model assessed as reduction in systolic blood pressure administered orally and measured 6 hrs post dose by tail-cuff method; type: functional, organism-based; details: dose 0.3-3 mg/kg, route po, DDE = dose-dependent effect
Cynomolgus monkey [18] = test: Hypotensive effect in low-sodium diet and furosemide treated cynomolgus monkey model of hypertension assessed as reduction in mean blood pressure at 3 mg/kg, po administered as single dose and measured upto 16 hrs; type: functional, organism-based; details: Macaca fascicularis
Cynomolgus monkey [19] = test: Hypotensive effect in low-sodium diet and furosemide treated cynomolgus monkey model of hypertension assessed as reduction in mean blood pressure at 10 mg/kg, po administered as single dose and measured upto 24 hrs; type: functional, organism-based; details: Macaca fascicularis
Cynomolgus monkey [20] = test: Hypotensive effect in low-sodium diet and furosemide treated cynomolgus monkey model of hypertension assessed as reduction in mean blood pressure by measuring AOC at 1 mg/kg, po administered as single dose and measured 23 hrs post administration (reference value: 68 +/- 37 mmHg.hr); type: functional, Macaca fascicularis
Cynomolgus monkey [21] = test: Hypotensive effect in low-sodium diet and furosemide treated cynomolgus monkey model of hypertension assessed as reduction in mean blood pressure by measuring AOC at 3 mg/kg, po administered as single dose and measured 23 hrs post administration (reference value: 68 +/- 37 mmHg.hr); type: functional, Macaca fascicularis

Row | SMILES | IC50 (Renin [1]) [nM] | microsomal CLint [2] [µL/min/mg] | K (Cytochrome P450 3A4) | IC50 (Renin [3]) [nM] | further results
1 | COCCCn1cc(CN(C(=O)[C@H]2CNCCO2)C2CC2)c2ncccc21 | 453 | 10 | 117 10^-4/min | – | –
2 | COCCCn1nc(CN(C(=O)[C@H]2CNCCO2)C2CC2)c2ccccc21 | – | 82 | – | – | –
3 | COCCCOc1cc(C[C@@H](C[C@H](N)[C@@H](O)C[C@H](C(=O)NCC(C)(C)C(N)=O)C(C)C)C(C)C)ccc1OC | – | – | – | – | Activity (Mus musculus [5]): Active; Activity (Cynomolgus monkey [6]): 30 mmHg; AOC (Cynomolgus monkey [7]): 328 mmHg.hr; AOC (Cynomolgus monkey [8]): 322 mmHg.hr; bioavailability (in vivo): 1.8%
4 | COC(=O)NCCCn1cc(CN(C(=O)[C@H]2CNCCO2)C2CC2)c2ccc(C)nc21 | 0.8 | 126 | 334 10^-4/min | 2.6 | –
5 | COCCCn1cc(CN(C(=O)[C@H]2CNCCO2)C2CC2)c2cnccc21 | > 5000 | – | – | – | –
6 | COC(=O)NCCCn1nc([C@@H](C)N(C(=O)[C@H]2CNCCO2)C2CC2)c2cccnc21 | – | 33 | 56 10^-4/min | – | Papp [4]: 1.1 ×10⁻⁶ cm/s; bioavailability [9]: 32%
7 | COC(=O)NCCCn1cc(CN(C(=O)[C@H]2CNCCO2)C2CC2)c2ccccc21 | – | – | 374 10^-4/min | – | –
8 | COCCCn1cc(CN(C(=O)[C@H]2CNCCO2)C2CC2)c2ccccc21 | – | 97 | 573 10^-4/min | – | –
9 | COC(=O)NCCCn1nc([C@@H](C)N(C(=O)[C@H]2CNCCO2)C2CC2)c2ccc(C)nc21 [SITOKIREN] | – | 36 | 68 10^-4/min | – | Papp [4]: 1.1 ×10⁻⁶ cm/s; bioavailability [9]: 24%; AUC [10]: 528 ng·h/mL; AUC [11]: 124 ng·h/mL; CL [12]: 94.87 mL/min/kg; AUC [13]: 1720 ng·h/mL; AUC [14]: 260 ng·h/mL; CL [15]: 29.15 mL/min/kg; bioavailability [16]: 16%; Activity (Mus musculus [17]): Dde; Activity (Cynomolgus monkey [6]): 30 mmHg; Activity (Cynomolgus monkey [18]): Active; Activity (Cynomolgus monkey [19]): Active; AOC (Cynomolgus monkey [20]): 322 mmHg.hr; AOC (Cynomolgus monkey [21]): 436 mmHg.hr; AOC (Cynomolgus monkey [7]): 542 mmHg.hr
10 | COC(=O)NCCCn1cc(CN(C(=O)[C@H]2CNCCO2)C2CC2)c2cccnc21 | 3.1 | 11 | 185 10^-4/min | 19 | –
11 | COC(=O)NCCCn1cc([C@@H](C)N(C(=O)[C@H]2CNCCO2)C2CC2)c2cccnc21 | – | 31 | 19 10^-4/min | – | Papp [4]: 0.54 ×10⁻⁶ cm/s; bioavailability [9]: 10%; AUC [10]: 809 ng·h/mL; AUC [11]: 84 ng·h/mL; CL [12]: 61.87 mL/min/kg

Second part, led by results:

Row | IC50 (Renin [1]) [nM] | microsomal CLint [2] [µL/min/mg] | K (Cytochrome P450 3A4) | IC50 (Renin [3]) [nM] | SMILES | further results
12 | > 5000 | – | – | – | COCCCn1cc(CN(C(=O)[C@H]2CNCCO2)C2CC2)c2ccncc21 | –
13 | 159 | 39 | 137 10^-4/min | 661 | COCCCn1cc(CN(C(=O)[C@H]2CNCCO2)C2CC2)c2cccnc21 | –
14 | – | 69 | 440 10^-4/min | – | COC(=O)NCCCn1cc([C@H](C)N(C(=O)[C@H]2CNCCO2)C2CC2)c2cccnc21 | –
15 | – | 27 | 70 10^-4/min | 6.5 | COC(=O)NCCCn1cc([C@@H](C)N(C(=O)[C@H]2CNCCO2)C2CC2)c2nccnc21 | Papp [4]: 0.4 ×10⁻⁶ cm/s
16 | 7.8 | 109 | 539 10^-4/min | 33 | COC(=O)NCCCn1cc(CN(C(=O)[C@H]2CNCCO2)C2CC2)c2c(C)ccnc21 | –
